Reference: patent US12673140B2, “Bladder, ureter, kidney, urethra, prostate and catheter anti-microbial, and biofilm prevention, reduction and treatment” (UHI, LLC, priority 2019, dated 2026)

Tested on: S. aureus
Experiment: MIC, CLSI microdilution
Type: cell-based
Conditions: 2% solution serially diluted

SMILES: [H]/N=C(\N/C(=N/[H])NCCCCCCNC(=N)NC(=N)Nc1ccc(Cl)cc1)Nc1ccc(Cl)cc1 [Chlorhexidine, chlorhexidine gluconate]
- Chlorhexidine MIC: 19.6 μg/ml chlorhexidine
